Laboratory results: the NIST ThermoML archive (doi:10.1021/je060243s)
Values joined by “and” are separate entries in the source; they are usually repeats but may differ in a detail not shown here. Equal entries are not always repeated.

Experiment: wn = mass fraction of the nth substance listed
Settings: Liquid, Pulse-echo method, w2 = 0.5

FC(F)C(F)(F)F [pentafluoroethane] + FCF
speed of sound
Settings	253.09 K	258.09 K	265.61 K
1000 kPa	–	656.5 m/s	–
1120 kPa	–	657.6 m/s	–
1180 kPa	684.1 m/s	–	–
1190 kPa	–	–	618.9 m/s
1260 kPa	684.8 m/s	658.8 m/s	–
1340 kPa	–	–	620 m/s
1380 kPa	685.8 m/s	659.7 m/s	–
1500 kPa	686.8 m/s	660.8 m/s and 661 m/s	621.6 m/s
1620 kPa	687.7 m/s	–	–
1630 kPa	–	662.2 m/s	–
1750 kPa	688.8 m/s	663.1 m/s	623.8 m/s
2010 kPa	690.6 m/s	665.1 m/s	626.1 m/s
2250 kPa	692.6 m/s	667.1 m/s	628.3 m/s
2510 kPa	694.3 m/s	669.2 m/s	630.7 m/s
2750 kPa	696.4 m/s	671.4 m/s	633 m/s
3010 kPa	698.4 m/s	673.4 m/s	635.2 m/s
3500 kPa	702.3 m/s	677.1 m/s	639.4 m/s
4000 kPa	705 m/s	681.1 m/s	644 m/s
4500 kPa	709.5 m/s	685.3 m/s	648.1 m/s
5000 kPa	713.3 m/s	689.1 m/s	652.1 m/s
6010 kPa	720.6 m/s	696.6 m/s	660.6 m/s
7010 kPa	727.4 m/s	703.9 m/s	668.4 m/s
8000 kPa	734.2 m/s	711 m/s	676.1 m/s
9000 kPa	740.8 m/s	718.1 m/s	683.8 m/s
10000 kPa	747.5 m/s	724.8 m/s	691 m/s
12000 kPa	760.2 m/s	738.2 m/s	705.2 m/s
14000 kPa	772.5 m/s	751.2 m/s	718.9 m/s
16010 kPa	784.5 m/s	763.4 m/s	–
18000 kPa	795.3 m/s	775 m/s	–
20000 kPa	806.9 m/s	786.7 m/s	–
23000 kPa	822.9 m/s	803.2 m/s	–
26000 kPa	837.9 m/s	818.7 m/s	–
29010 kPa	852.8 m/s	833.7 m/s	–
32000 kPa	867.2 m/s	848.7 m/s	–
35000 kPa	880.5 m/s	862.6 m/s	–
40000 kPa	902.6 m/s	885 m/s	–
45000 kPa	923.6 m/s	906.3 m/s	–
50000 kPa	943.8 m/s	926.7 m/s	–
55000 kPa	962.8 m/s	946.6 m/s	–
60000 kPa	981.2 m/s	965.6 m/s	–
65000 kPa	999.5 m/s	983.3 m/s	–
